Read-outs that look alike come from different tables or passages of the source.

Experiment [1] concerns the target protein kinases (human kinome) (Homo sapiens, UniProt P00519). It is filed as cell-based.
In experiment [2] the target is protein kinases (human kinome) (Homo sapiens, UniProt P35790). It is filed as cell-based. The settings on record: CHKA P35790; experiment wp168.
protein kinases (human kinome) (Homo sapiens, UniProt P35790), sequence (P35790 whole entry): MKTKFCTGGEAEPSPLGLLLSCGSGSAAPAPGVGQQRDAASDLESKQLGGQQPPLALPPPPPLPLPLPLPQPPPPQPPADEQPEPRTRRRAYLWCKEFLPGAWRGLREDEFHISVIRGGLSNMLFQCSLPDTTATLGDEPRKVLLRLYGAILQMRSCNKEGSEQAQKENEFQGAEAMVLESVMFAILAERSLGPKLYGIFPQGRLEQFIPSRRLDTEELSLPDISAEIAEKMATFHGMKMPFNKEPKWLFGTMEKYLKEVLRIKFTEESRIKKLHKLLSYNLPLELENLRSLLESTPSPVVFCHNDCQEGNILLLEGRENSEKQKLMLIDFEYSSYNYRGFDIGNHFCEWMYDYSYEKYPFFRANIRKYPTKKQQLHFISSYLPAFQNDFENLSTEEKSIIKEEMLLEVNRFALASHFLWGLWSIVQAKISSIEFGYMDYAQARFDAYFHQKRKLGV

protein kinases (human kinome) (Homo sapiens, UniProt P00519), sequence (P00519 whole entry): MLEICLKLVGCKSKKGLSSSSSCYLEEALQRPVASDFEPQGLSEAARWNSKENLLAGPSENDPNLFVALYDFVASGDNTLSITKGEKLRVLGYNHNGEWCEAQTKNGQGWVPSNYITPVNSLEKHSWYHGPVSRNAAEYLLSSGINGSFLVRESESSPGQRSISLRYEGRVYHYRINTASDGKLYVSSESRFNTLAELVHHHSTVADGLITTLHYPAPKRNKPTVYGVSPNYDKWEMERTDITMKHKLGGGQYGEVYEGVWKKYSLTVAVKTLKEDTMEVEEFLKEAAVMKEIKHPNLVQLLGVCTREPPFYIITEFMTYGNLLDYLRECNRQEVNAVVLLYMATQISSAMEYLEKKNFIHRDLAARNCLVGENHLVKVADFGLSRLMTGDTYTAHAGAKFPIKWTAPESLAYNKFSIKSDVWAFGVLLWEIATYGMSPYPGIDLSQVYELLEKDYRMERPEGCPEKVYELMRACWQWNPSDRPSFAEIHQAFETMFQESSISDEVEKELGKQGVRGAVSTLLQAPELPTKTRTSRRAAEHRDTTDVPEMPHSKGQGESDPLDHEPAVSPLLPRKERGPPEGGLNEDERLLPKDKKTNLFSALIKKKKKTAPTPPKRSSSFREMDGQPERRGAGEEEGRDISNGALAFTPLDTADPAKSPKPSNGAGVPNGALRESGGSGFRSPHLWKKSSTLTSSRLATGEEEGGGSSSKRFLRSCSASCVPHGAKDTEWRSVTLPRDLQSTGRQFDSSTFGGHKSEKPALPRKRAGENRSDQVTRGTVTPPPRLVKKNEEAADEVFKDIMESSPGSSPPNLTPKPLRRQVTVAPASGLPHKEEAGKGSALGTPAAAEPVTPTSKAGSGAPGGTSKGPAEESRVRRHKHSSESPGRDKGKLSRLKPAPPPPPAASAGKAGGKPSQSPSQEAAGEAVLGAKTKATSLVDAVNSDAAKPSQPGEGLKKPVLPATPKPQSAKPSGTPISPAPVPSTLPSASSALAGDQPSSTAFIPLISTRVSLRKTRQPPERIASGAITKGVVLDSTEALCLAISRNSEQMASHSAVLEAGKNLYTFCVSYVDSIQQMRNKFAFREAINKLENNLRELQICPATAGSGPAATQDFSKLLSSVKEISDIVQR

For `Cc1ccc(NC(=O)c2cccc(C(F)(F)F)c2)cc1N1Cc2cnc(Nc3ccc(N4CCN(CCCCC(=O)N[C@H](C(=O)N5C[C@H](O)C[C@H]5C(=O)N[C@@H](C)c5ccc(-c6scnc6C)cc5)C(C)(C)C)CC4)nc3)nc2N(C)C1=O` [DB1113], the “logFC of ABL1 (P00519)” value in experiment [1] (Experiment wp168) is −1.014. In experiment [1] (experiment wp168), the “logFC ABL1 (P00519)” value is on record as −1.014.

Regarding `CC(C)S(=O)(=O)c1ccccc1Nc1nc(Nc2ccc(N3CCN(CCOCCNC(=O)CNc4cccc5c4C(=O)N(C4CCC(=O)NC4=O)C5=O)CC3)cc2)ncc1Cl` (stereo not shown) [SK.3.91], in experiment [1] (experiment wp160, 4 hr), the “logFC ABL1 (P00519)” value was −0.3545 and the “logFC of ABL1 (P00519)” value was −0.3545.

`Cc1ccc(NC(=O)c2cccc(C(F)(F)F)c2)cc1N1Cc2cnc(Nc3ccc(N4CCN(CCCOc5cccc6c5C(=O)N(C5CCC(=O)NC5=O)C6=O)CC4)nc3)nc2N(C)C1=O` (stereo not shown) [DB0662] showed a logFC in experiment [2] of −0.3222. In addition, the “logFC of ABL1 (P00519)” value in experiment [1] (Experiment wp168) is on record as −0.7617. The “logFC ABL1 (P00519)” value in experiment [1] (experiment wp168) was −0.7617.
